The values that follow are results of earlier work, collected in US20090030403A1, “Methods and Systems for Attenuating the Tolerance Response to a Drug” (priority 2007, published 2009).

Read-outs that look alike come from different tables or passages of the source.

Experiment in data set [1]: not given
The source holds these as a separate data set.

Experiment in data set [2]: not given
This is another data set of the same source.

Experiment in data set [3]: not given
This is another data set of the same source.

In data set [4] the test system is maximal electroshock seizures. To be noted: compared with ethosuximide.
[5] abbreviates: system responsible for the drug's metabolism.
Setting [6] is: system removing the drug or its metabolites.

Turning to `CC(=O)Nc1nnc(S(N)(=O)=O)s1` [Acetazolamide], the Half life (in vivo) is 3 to 9 h.
Regarding `NC(=O)N1c2ccccc2C=Cc2ccccc21` [Carbamazepine], the Excreted unchanged (in urine where stated) is recorded as 2-3% excreted unchanged in urine. In addition, the Half life (in vivo) is 25 to 65 h. For the same molecule, the Metabolism result under setting [5] was “hepatic CYP3A4 to active epoxide form”.
Consider `CN1C(=O)CC(=O)N(c2ccccc2)c2cc(Cl)ccc21` [Clobazam], for which the Half life (in vivo) was 18 h. In addition, the Excretion result under setting [6] is “Renal”. For the same molecule, under setting [5], the Metabolism entry is “Hepatic”.
`O=C1CN=C(c2ccccc2Cl)c2cc([N+](=O)[O-])ccc2N1` [Clonazepam]: under “in vivo”, the Bioavailability is 0.9, the Excretion result is reported as “Renal”, the Half life was 30 to 40 h and the Metabolism result is “Hepatic CYP3A4”.
As for `O=C(O)C1N=C(c2ccccc2)c2cc(Cl)ccc2NC1=O` (stereo not shown) [Clorazepate], for the setting “in vivo”, the Bioavailability is given as 0.91 and the Half life was 36 to 100 h. Under setting [6], the Excretion entry was “Renal”. Further, the Metabolism result under setting [5] is “Hepatic”.
Take `CN1C(=O)CN=C(c2ccccc2)c2cc(Cl)ccc21` [Diazepam]: the “Time to Clinical Onset” value in data set [1] (Rectal) is 5 to 15 min.
Take `CCC1(C)CC(=O)NC1=O` (stereo not shown) [Ethosuximide]: under “in vivo”, the Bioavailability is 93%[1] and the Half life is 53 h. Also, the Excretion entry under setting [6] is “Renal (20%)”. In addition, the Metabolism entry under setting [5] is given as “Hepatic (CYP3A4, CYP2E1)”. In addition, the “Plasma concentration of the drug during long term therapy” value in data set [2] (per daily dose of 1 mg/kg) is reported as “about 2 μg/ml”.
Turning to `CCN1C(=O)NC(c2ccccc2)C1=O` (stereo not shown) [Ethotoin], the Half life (in vivo) was 3 to 9 h.
In the case of `CCOc1ccc2nc(S(N)(=O)=O)sc2c1` [Ethoxzolamide], the Half life (in vivo) was 2.5 to 5.5 h. In addition, the Protein binding in data set [3] is on record as approximately 89%.
For the molecule `NC(=O)OCC(COC(N)=O)c1ccccc1` [Felbamate], where the note is “in vivo”, the Bioavailability was more than 90% and the Half life was 20 to 23 h. For the same molecule, the Metabolism result under setting [5] was “Hepatic”.
As for `O=C1NC(c2ccccc2)(c2ccccc2)C(=O)N1COP(=O)(O)O` [Fosphenytoin], the Half life (to convert to phenytoin) is 15 minutes to convert to phenytoin.
In the case of `NCC1(CC(=O)O)CCCCC1` [Gabapentin], under “in vivo”, the Bioavailability is recorded as 60% for 0.9 g daily to 27% for 4.8 g daily dose; the “Bioavailability (absorption in words)” value is “Rapid, in part by saturable carrier-mediated L-”; the Excretion result is reported as “Renal”; the “Food increases absorption by” value is reported as “Food increases absorption by 14%”. Under “in vivo”, the Half life was 5 to 7 h. Besides, the Metabolism result under setting [5] is listed as “not appreciably metabolized”.
As to `Nc1nnc(-c2cccc(Cl)c2Cl)c(N)n1` [Lamotrigine], the Half life (healthy adults) is 24 to 34 h (healthy adults). For the same molecule, the Excretion result under setting [6] was “Renal”. Besides, the Metabolism result under setting [5] is “Hepatic”.
Regarding `CC[C@@H](C(N)=O)N1CCCC1=O` [Levetiracetam, α-ethyl-2-oxo-1-pyrrolidineacetamide], the Half life (in vivo) was 6 to 8 h. Also, under setting [6], the Excretion result is recorded as “Renal”. Moreover, the Metabolism result under setting [5] is “Renal”.
Regarding `O=C1Nc2ccc(Cl)cc2C(c2ccccc2Cl)=NC1O` (stereo not shown) [Lorazepam], the Half life (in vivo) was 10 to 20 h. The Excretion result under setting [6] is “Renal”. The Metabolism result under setting [5] is recorded as “Hepatic”.
Regarding `CCC1(c2ccccc2)NC(=O)N(C)C1=O` (stereo not shown) [Mephenytoin], under “in vivo”, the Half life is 7 h.
For `CCCC(C)(COC(N)=O)COC(N)=O` [Meprobamate], under “in vivo”, the Half life is 10 h. Moreover, under setting [6], the Excretion entry is reported as “Renal”. Besides, under setting [5], the Metabolism result is listed as “Hepatic”.
Take `CN1C(=O)CC(C)(c2ccccc2)C1=O` (stereo not shown) [Mesuximide]: the “Activity against maximal electroshock seizures” value in data set [4] was “more active against maximal electroshock seizures”. For the same molecule, the Half life (active metabolite) is 28 to 38 h (active metabolite) and the Half life (in vivo) was 1.4 to 2.6 h (mesuximide). Also, under setting [6], the Excretion result is recorded as “Renal”. The Metabolism entry under setting [5] was “Hepatic (demethylation and glucuronidation)”.
As to `Cc1ncc2n1-c1ccc(Cl)cc1C(c1ccccc1F)=NC2` [Midazolam], for the setting “in vivo”, the Excretion entry was “Renal”. The Half life (in vivo) is 1.8 to 6.4 h. Besides, where the note is “in vivo”, the Metabolism result was “Hepatic”. Moreover, the Bioavailability entry was “I.M. 90%+” (in vivo, im) and “Oral ~36%” (in vivo, po). The “Time to Clinical Onset” value was 5 to 8 min in data set [1] (Buccal), 1 to 5 min in data set [1] (Intramuscular) and 1 to 5 min in data set [1] (Intravenous).
In the case of `O=C1CN=C(c2ccccc2)c2cc([N+](=O)[O-])ccc2N1` [Nitrazepam], where the note is “in vivo”, the Excretion result is given as “Renal” and the Half life is 20 to 40 h. Further, under setting [5], the Metabolism result is recorded as “Hepatic”.
For `NC(=O)N1c2ccccc2CC(=O)c2ccccc21` [Oxcarbazepine], the Half life (healthy adults) is 1 to 5 h (healthy adults). In addition, the Bioavailability (in vivo) is listed as more than 95%.
For the molecule `CCC1(C)OC(=O)N(C)C1=O` (stereo not shown) [Paramethadione], the “Protein binding (in words)” value in data set [3] was “Not significant”.
For `NC(=O)NC(=O)Cc1ccccc1` [Phenacemide], the Half life (in vivo) was 22 to 25 h.
Take `CCC1(c2ccccc2)C(=O)NC(=O)NC1=O` [Phenobarbital]: for the setting “in vivo”, the Bioavailability is more than 95%; the Excretion result is “Renal and fecal”; the Half life is 53 to 118 h. Moreover, the “Plasma concentration during long term therapy” value in data set [2] (adults, per daily dose of 1 mg/kg) is recorded as “about 10 μg/ml”.
For `CN1C(=O)CC(c2ccccc2)C1=O` (stereo not shown) [Phensuximide], the “Activity against maximal electroshock seizures” value in data set [4] is recorded as “more active against maximal electroshock seizures”.
For the molecule `O=C1NC(=O)C(c2ccccc2)(c2ccccc2)N1` [Phenytoin, Diphenylhydantoin], the Half life (in vivo) was 22 h. The Bioavailability (oral) was 70-100%. Further, the Bioavailability (rectal and intravenous administration) is 24.4%. Moreover, the Excretion result under setting [6] was “Primarily through the bile”. For the same molecule, under setting [5], the Metabolism result is “hepatic”. Besides, in data set [2] (in vivo), the “Concentration at which toxic effects such as nystagmus develop” value is listed as “around 20 μg/ml” and the “Therapeutic (plasma) concentration for control of seizures” value is recorded as “above 10 μg/ml”.
For the molecule `CC(C)C[C@H](CN)CC(=O)O` [Pregabalin], under “in vivo”, the Bioavailability result was “≧90%” and the Half life was 5 to 6.5 h. For the same molecule, under setting [6], the Excretion result is given as “Renal”. The Metabolism result under setting [5] is on record as “Negligible”.
Consider `CCC1(c2ccccc2)C(=O)NCNC1=O` [Primidone], for which, for the setting “in vivo”, the Bioavailability is more than 90% and the Half life result was “Primidone: 5-15 hours,”. Further, the Excretion entry under setting [6] is listed as “Renal”. Also, the Metabolism result under setting [5] is “Hepatic”. Besides, the “Plasma concentration of the drug during long term therapy” value in data set [2] (per daily dose of 1 mg/kg) was “about 1 μg/ml”.
Consider `NC(=O)CCC/N=C(\c1ccc(Cl)cc1)c1cc(F)ccc1O` [Progabide], for which, for the setting “in vivo”, the Bioavailability was 0.6 and the Half life was 4 h. The Excretion result under setting [6] is given as “Renal”. In addition, the Metabolism result under setting [5] is given as “Hepatic”.
For `NS(=O)(=O)c1ccc(N2CCCCS2(=O)=O)cc1` [Sultiame], for the setting “in vivo”, the Half life is listed as 24 hour hours. The Bioavailability (oral) is 100% (oral). Further, the Excretion entry under setting [6] is “Fecal (10%) and renal (90%)”. Further, the Metabolism result under setting [5] was “Hepatic secretion”.
Consider `Cc1ccsc1C(=CCCN1CCC[C@@H](C(=O)O)C1)c1sccc1C` [Tiagabine], for which, under “in vivo”, the Half life is 7 to 9 h. Besides, the Excretion result under setting [6] was “Fecal and renal”. The Metabolism entry under setting [5] is listed as “Hepatic (CYP450 system)”.
Consider `CC1(C)O[C@@H]2[C@@H](CO[C@@]3(COS(N)(=O)=O)OC(C)(C)O[C@@H]23)O1` [Topiramate, 2,3:4,5-bis-O-(1-methylethylidene)-beta-D-fructopyranose sulfamate], for which, for the setting “in vivo”, the Half life was 19 to 23 h and the “Metabolism, hepatic share” value is on record as 30%.
For `CCC(C)C(CC)C(N)=O` (stereo not shown) [Valnoctamide], under “in vivo”, the Bioavailability was 94%[1] and the Half life was 10 h. For the same molecule, under setting [5], the Metabolism entry was “Hepatic”.
As for `C=CC(N)CCC(=O)O` (stereo not shown) [Vigabatrin], for the setting “in vivo”, the Bioavailability is on record as 80-90%. Also, under setting [6], the Excretion result is “Renal”. The Metabolism entry under setting [5] is on record as “Almost no metabolic transformation occurs”. Besides, the Half life runs as follows: (the elderly) 12 to 13 h; (young adults) 5 to 8 h.
